Measured values as given in publication PMC9599613 (Biomolecules, 2022).
Like-named read-outs stand apart in the source and are kept apart here.

Experiments:
COX-1 = COX-1 (Homo sapiens, UniProt P23219); test: biochemical; conditions: read-out: % COX-1 Inhibition
Description: (§1) The Cyclooxygenase enzymes (COX-1 and 2) inhibitory potential of our test compounds was determined according to the previously reported procedure. […] The enzyme solutions with a concentration of 0.7–0.8 μg/10 μL (COX-1) and 300 U/mL (COX-2) were prepared. To start the assay, for enzyme activation, 10 µL enzyme solution (kept in a cool temperature of 4 °C for 5 min) and cofactor containing hematin (50 µL, 1 mM), glutathione (0.9 mM) and TMPD in a Tris-buffer (0.1 M) with a pH 8.0 was added. After that, 60 µL of the enzyme solution was added to 20 µL of the test samples of various concentrations and incubated at room temperature for 5 to 10 min. Then, 20 µL of arachidonic acid (30 mM) was added to start the reaction. The mixture was then again incubated for 15 min at 37 °C, and absorbances were measured at 570 nm with UV-visible spectrophotometer. […] The % enzyme inhibitions were calculated by using the previously reported formula.

[1] = target: T1, acetylcholinesterase (AChE) (Electrophorus electricus, UniProt O42275); test: Anticholinesterase assay (Ellman's), AChE inhibition; type: biochemical
T1 construct: acetylcholinesterase (AChE, obtained from Electrophorus electricus); from tissue
Description: (§2) This enzyme method relied on the hydrolytic of acetyl cholinethioiodide (ATChI) by acetylcholinesterase and butyrylthiocholine iodide (BTchI) by butyrylcholinesterase. As a result of this breakdown, 5-thio-2-nitrobenoate anions formed. […] The absorption was measured with a spectrophotometer, as per the protocols. […] An amount of 0.1 M phosphate buffer (8.0 ± 0.1 pH) solution was prepared, whose final pH was adjusted by using the KOH solution.
(§3) In this assay, 50 µL enzyme solution and 50 µL DTNB reagent were added to 1 mL test samples in a cuvette and then incubated at 30 °C for 15 min. Afterward, a 50 µL substrate solution was added to the mixture.

[2] = target: T2, butyrylcholinesterase (BChE) (Equus caballus, UniProt P81908); test: Anticholinesterase assay (Ellman's), BChE inhibition; type: biochemical, equine
T2 construct: butyrylcholinesterase (BChE, obtained from equine serum); from tissue; host or cells: equine serum
Description: as §2, §3

COX-2 = target: T3, COX-2 (Homo sapiens, UniProt P35354); test: biochemical
T3 sequence (P35354 18-604): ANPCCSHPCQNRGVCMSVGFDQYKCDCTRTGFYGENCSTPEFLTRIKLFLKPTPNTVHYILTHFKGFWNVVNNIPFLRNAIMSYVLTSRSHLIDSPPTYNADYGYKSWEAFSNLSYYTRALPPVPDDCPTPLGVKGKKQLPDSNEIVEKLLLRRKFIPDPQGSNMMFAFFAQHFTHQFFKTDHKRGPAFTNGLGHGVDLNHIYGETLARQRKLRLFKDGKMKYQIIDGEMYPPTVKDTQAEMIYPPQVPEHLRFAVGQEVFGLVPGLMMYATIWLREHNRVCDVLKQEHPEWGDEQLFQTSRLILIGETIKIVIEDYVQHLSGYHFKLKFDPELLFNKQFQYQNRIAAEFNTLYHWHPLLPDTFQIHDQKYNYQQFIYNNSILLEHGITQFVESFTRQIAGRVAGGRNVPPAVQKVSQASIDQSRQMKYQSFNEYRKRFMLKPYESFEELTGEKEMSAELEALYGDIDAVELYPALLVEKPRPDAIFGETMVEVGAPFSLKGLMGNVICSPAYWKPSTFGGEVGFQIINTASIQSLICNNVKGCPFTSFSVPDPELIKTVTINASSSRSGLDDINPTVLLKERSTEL
Description: as §1

human recombinant 5-LOX = target: T4, human recombinant 5-LOX (Homo sapiens, UniProt P09917); test: biochemical
T4 sequence (P09917 1-674): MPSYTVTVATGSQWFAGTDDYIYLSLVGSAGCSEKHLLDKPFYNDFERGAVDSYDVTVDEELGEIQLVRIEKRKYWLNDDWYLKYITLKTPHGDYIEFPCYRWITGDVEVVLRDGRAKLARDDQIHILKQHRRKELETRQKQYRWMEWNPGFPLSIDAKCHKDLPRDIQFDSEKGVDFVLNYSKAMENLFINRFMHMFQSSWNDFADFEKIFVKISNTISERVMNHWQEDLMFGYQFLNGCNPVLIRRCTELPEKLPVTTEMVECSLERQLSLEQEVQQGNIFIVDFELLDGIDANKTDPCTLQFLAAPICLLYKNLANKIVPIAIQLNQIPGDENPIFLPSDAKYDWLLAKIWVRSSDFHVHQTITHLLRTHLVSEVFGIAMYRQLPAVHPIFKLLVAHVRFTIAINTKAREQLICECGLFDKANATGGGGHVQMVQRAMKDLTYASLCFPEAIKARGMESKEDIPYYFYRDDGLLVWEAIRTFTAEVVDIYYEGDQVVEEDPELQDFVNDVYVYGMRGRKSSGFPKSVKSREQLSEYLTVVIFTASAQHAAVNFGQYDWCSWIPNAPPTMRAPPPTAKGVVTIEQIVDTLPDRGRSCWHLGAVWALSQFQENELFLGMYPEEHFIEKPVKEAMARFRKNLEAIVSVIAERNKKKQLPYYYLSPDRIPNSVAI
Description: The lipoxygenase assay on our test compounds was performed by utilizing human recombinant 5-LOX [65]. […] The enzyme solution with a concentration of 10,000 U/mL was prepared, whereas 80 mM linoleic acid solution was used as a substrate. Solutions were prepared in a phosphate buffer (50 mM) with a pH of 6.3, which was also utilized as the blank. To start, various concentrations of our test samples were dissolved in 0.25 mL of the buffer, to which 0.25 mL enzyme solution was added and incubated at 25 °C for 5 min. Afterward, the substrate solution (0.1 mL) was added to the mixture and shaken well. […] In this assay, the standard drug was montelukast, and using the following formula, the % inhibitions were calculated: % enzyme inhibition=X−X1/X×100 where X = absorbance of the negative control (with no test sample), and X1 = absorbance of the test compound.

[3] = ABTS free radical scavenging assay
Description: The antioxidant potentials of isolated phytosteroids 1 and 2 were also determined using the ABTS (2,2′-azino-bis(3-ethylbenzothiazoline-6-sulfonic acid)) standard method. […] This created free radicals within the sample. Afterward, the addition of 50% methanol and the ABTS radical cation solution were adjusted to pH 7.4 by dilution with the phosphate buffer (pH 7.4). […] The positive control was ascorbic acid, and the assay was repeated in triplicate. The percent radical scavenging potential of the test compounds was calculated using the standard reported formula.

[4] = DPPH free radical scavenging assay
Description: The antioxidant potentials of isolated compounds (phytosteroids 1 and 2) were determined following the DPPH standard assay. Initially, DPPH (24 mg) was dissolved in methanol (100 mL). Stock solutions of the test compounds were prepared in different dilutions (62.50–1000 μg/mL). From each dilution, 1 mL was mixed with 1 mL of the DPPH solution. The solution mixtures were incubated at room temperature for 0.5 h. Afterward, absorbance was recorded at 517 nm with a UV-visible spectrophotometer. Ascorbic acid was the standard drug, whereas the DPPH solution without the compound was negative control. The percent radical scavenging potential of the test compounds was calculated using the following formula: % DPPH activity=X−X1/X×100 where X = absorbance of the control, and X1 = absorbance of the test compound.

[5] = 1000 μg/mL, listed as compound 1

Chain of COX-1 (P23219 24-599): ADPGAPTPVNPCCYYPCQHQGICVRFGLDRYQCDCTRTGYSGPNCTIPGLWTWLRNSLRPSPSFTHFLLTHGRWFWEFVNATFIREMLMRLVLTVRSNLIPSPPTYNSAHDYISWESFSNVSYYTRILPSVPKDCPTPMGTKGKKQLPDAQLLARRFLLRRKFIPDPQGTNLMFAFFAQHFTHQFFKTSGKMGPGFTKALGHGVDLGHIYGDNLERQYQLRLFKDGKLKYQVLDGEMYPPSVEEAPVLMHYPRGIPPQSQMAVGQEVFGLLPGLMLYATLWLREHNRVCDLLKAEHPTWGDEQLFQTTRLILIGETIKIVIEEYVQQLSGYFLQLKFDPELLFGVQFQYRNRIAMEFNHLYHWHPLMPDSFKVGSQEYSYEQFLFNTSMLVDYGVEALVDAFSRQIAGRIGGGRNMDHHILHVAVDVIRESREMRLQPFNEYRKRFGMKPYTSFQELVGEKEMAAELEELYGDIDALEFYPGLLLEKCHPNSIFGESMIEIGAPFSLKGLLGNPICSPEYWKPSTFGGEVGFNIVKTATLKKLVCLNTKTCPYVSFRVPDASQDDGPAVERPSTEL
T1 sequence (O42275 24-633): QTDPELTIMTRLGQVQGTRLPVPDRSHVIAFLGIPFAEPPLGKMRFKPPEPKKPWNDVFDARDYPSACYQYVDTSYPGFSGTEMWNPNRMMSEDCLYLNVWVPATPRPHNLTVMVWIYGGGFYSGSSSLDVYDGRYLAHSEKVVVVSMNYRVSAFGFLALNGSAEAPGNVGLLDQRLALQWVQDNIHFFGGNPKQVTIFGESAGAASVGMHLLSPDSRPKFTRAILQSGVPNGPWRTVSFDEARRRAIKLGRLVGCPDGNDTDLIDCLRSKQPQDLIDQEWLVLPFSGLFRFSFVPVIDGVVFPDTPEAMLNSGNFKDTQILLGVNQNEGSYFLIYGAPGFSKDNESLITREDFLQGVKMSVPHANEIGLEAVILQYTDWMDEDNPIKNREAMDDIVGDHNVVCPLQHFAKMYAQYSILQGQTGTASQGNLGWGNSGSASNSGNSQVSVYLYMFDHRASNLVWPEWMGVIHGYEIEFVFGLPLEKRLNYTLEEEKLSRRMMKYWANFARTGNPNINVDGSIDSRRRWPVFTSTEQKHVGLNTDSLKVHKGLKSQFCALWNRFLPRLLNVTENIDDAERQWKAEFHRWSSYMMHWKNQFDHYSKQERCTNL
T2 sequence (P81908 whole entry): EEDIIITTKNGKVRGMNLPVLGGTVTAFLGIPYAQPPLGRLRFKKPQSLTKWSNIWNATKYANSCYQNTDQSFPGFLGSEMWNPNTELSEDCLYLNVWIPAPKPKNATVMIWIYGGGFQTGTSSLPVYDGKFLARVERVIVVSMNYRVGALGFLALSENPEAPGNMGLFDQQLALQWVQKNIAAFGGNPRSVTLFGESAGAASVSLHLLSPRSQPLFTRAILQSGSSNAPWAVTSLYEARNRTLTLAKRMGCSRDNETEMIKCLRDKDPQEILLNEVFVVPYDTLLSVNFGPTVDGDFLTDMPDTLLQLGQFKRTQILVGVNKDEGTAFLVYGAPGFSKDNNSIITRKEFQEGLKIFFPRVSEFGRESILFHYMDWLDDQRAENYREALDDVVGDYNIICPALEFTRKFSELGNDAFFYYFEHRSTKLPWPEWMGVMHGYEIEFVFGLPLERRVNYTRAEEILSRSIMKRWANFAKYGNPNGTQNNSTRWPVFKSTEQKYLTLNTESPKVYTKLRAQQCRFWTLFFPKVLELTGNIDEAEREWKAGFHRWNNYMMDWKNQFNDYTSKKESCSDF

For `CC(=O)Oc1ccccc1C(=O)O` [Aspirin, aspirin, reference compound], the inhibition at 62.5 µg/mL (COX-1; 62.50 μg/mL) was 51.68 ± 0.22%, the inhibition at 125 µg/mL (COX-1; 125 μg/mL) was 59.84 ± 0.32% and the inhibition at 250 µg/mL (COX-1; 250 μg/mL) was 66.43 ± 0.29%. For the same compound, the inhibition at 500 µg/mL (COX-1; 500 μg/mL) was 71.88 ± 0.2% and the inhibition at 1000 µg/mL (COX-1; 1000 μg/mL) was 75.89 ± 0.2%.
For `CC(C)C/C=C\C(C)C1CCC2C3CCC4=CC(=O)CCC4(C)C3CCC12C` (stereo not drawn) [Compound 1, (Z)-10,13-dimethyl-17-(6-methylhept-3-en-2-yl)-1,2,6,7,8,9,10,11,12,13,14,15,16,17-tetradecahydro-3H-cyclopenta[a]phenanthren-3-one], the “AChE inhibition (%)” value ([1]; 62.5 μg/mL) was 55.56 ± 0.52 %, the “AChE inhibition (%)” value ([1]; 125 μg/mL) was 64.78 ± 0.60 % and the “AChE inhibition (%)” value ([1]; 250 μg/mL) was 71.46 ± 0.53 %. For the same compound, the “AChE inhibition (%)” value ([1]; 500 μg/mL) was 77.68 ± 0.63 %, the “AChE inhibition (%)” value ([1]; 1000 μg/mL) was 85.72 ± 0.79 ^ns % and the IC50 ([1]; read-out: AChE IC50 (converted)) was 53 µM. The IC50 [2] was 71.5 µM, the “Percent BChE (mean ± SEM)” value ([2]; 62.5 μg/mL) was 59.81 ± 0.65 % and the “Percent BChE (mean ± SEM)” value ([2]; 125 μg/mL) was 66.65 ± 0.78 %. For the same compound, the “Percent BChE (mean ± SEM)” value ([2]; 250 μg/mL) was 75.70 ± 0.62 %, the “Percent BChE (mean ± SEM)” value ([2]; 500 μg/mL) was 80.76 ± 0.63 % and the “Percent BChE (mean ± SEM)” value ([2]; 1000 μg/mL) was 84.83 ± 0.62 %. It also gave an inhibition at 62.5 µg/mL (COX-1) of 22.4 ± 0.49%, an inhibition at 125 µg/mL (COX-1) of 40.6 ± 0.84% and an inhibition at 250 µg/mL (COX-1) of 43.5 ± 0.46%. The inhibition at 500 µg/mL (COX-1) was 59.56 ± 0.45%, the inhibition at 1000 µg/mL (COX-1) was 66.29 ± 0.43% and the IC50 (COX-2) was 28 µM. It also gave an inhibition at 62.5 µg/mL (COX-2; read-out: % COX-2 Inhibition) of 61.1 ± 0.7%, an inhibition at 125 µg/mL (COX-2; read-out: % COX-2 Inhibition) of 66.4 ± 0.7% and an inhibition at 250 µg/mL (COX-2; read-out: % COX-2 Inhibition) of 72.7 ± 0.51%. It also gave an inhibition at 500 µg/mL (COX-2; read-out: % COX-2 Inhibition) of 78.83 ± 0.73%, an inhibition at 1000 µg/mL (COX-2; read-out: % COX-2 Inhibition) of 83.13 ± 0.8% and an IC50 (human recombinant 5-LOX) of 19.3 µM. It also gave an inhibition at 62.5 µg/mL (human recombinant 5-LOX; read-out: % 5-LOX Inhibition) of 65.68 ± 0.64%, an inhibition at 125 µg/mL (human recombinant 5-LOX; read-out: % 5-LOX Inhibition) of 71.42 ± 0.46% and an inhibition at 250 µg/mL (human recombinant 5-LOX; read-out: % 5-LOX Inhibition) of 76.53 ± 0.41%. The inhibition at 500 µg/mL (human recombinant 5-LOX; read-out: % 5-LOX Inhibition) was 82.45 ± 0.55%, the inhibition at 1000 µg/mL (human recombinant 5-LOX; read-out: % 5-LOX Inhibition) was 87.63 ± 0.64% and the “ABTS IC50” value [3] was 369.86 µg/mL. The “Percent ABTS Activity (mean ± SEM)” value ([3]; 62.5 μg/mL) was 29.67 ± 0.61 %, the “Percent ABTS Activity (mean ± SEM)” value ([3]; 125 μg/mL) was 35.69 ± 0.77 % and the “Percent ABTS Activity (mean ± SEM)” value ([3]; 250 μg/mL) was 43.83 ± 0.56 %. The “Percent ABTS Activity (mean ± SEM)” value ([3]; 500 μg/mL) was 54.60 ± 0.80 %, the “Percent ABTS Activity (mean ± SEM)” value ([3]; 1000 μg/mL) was 62.61 ± 0.77 % and the “Percent ABTS Activity (mean ± SEM)” value [3, 5] was 62.61 ± 0.77%. The “DPPH IC50” value [4] was 314.78 µg/mL, the “Percent DPPH Activity (mean ± SEM)” value ([4]; 62.5 μg/mL) was 31.53 ± 0.71 % and the “Percent DPPH Activity (mean ± SEM)” value ([4]; 125 μg/mL) was 37.51 ± 0.77 %. The “Percent DPPH Activity (mean ± SEM)” value ([4]; 250 μg/mL) was 45.75 ± 0.58 %, the “Percent DPPH Activity (mean ± SEM)” value ([4]; 500 μg/mL) was 56.45 ± 0.49 % and the “Percent DPPH Activity (mean ± SEM)” value ([4]; 1000 μg/mL) was 64.79 ± 0.62 %. The “Percent DPPH Activity (mean ± SEM)” value [4, 5] was 64.79 ± 0.62%.
